Laboratory results published in patent US20250195660A1, “INACTIVATING BACTERIA WITH ELECTRIC PULSES AND ANTIBIOTICS” (Purdue Research Foundation, priority 2018, published 2025).
Entries after “also recorded” stand apart in the source; their conditions may differ.

What was measured:
[1] = system: gentamicin, streptomycin and sulfonamide resistant Pseudomonas aeruginosa (BEI Resources NR-31040); assay: Inactivation of P. aeruginosa by 300 ns electric pulses and/or antibiotics (CFU plating); format: cell-based; settings: for additional inactivation of P. aeruginosa: 20 kV/cm NSEPs + 2 μg/mL or 20 μg/mL
Source text: (§1) Except for rifampicin, the five other antibiotics in these examples primarily target gram-positive bacteria and are largely ineffective or not used against gram-negative bacteria in a clinical setting.
(§2) A Blumlein pulsed generator consisting of two lines comprised of twelve 2000 pF capacitors connected by inductors produced 300 ns EPs with rise-times of 30 ns and fall-times of 35 ns at a repetition frequency of 1 Hz (12). The EPs were applied to a standard 2 mm gap electroporation cuvette (Dot Scientific R) filled with a solution containing the microorganisms. Used was a Luria broth of 0.5% salinity (5 grams of NaCl/Liter) for the solution to electrically match the resistance of the sample with the impedance of the pulse generator (11Ω) to prevent signal reflection. The voltage measurements were taken using a LeCroy PPE 20 kV high voltage probe with a 1000:1 attenuation recorded by a TeleDyne LeCroy® Waverunner 6 Zi Oscilloscope with a bandwidth of 4 GHZ.
(§3) The gram-negative strains included a carbapenem-resistant Escherichia coli (ATCC® BA-2452TM, New Delhi metallo-beta-lactamase NDM-1 positive.), Klebsiella pneumoniae (ATCC® BAA-2146TM NDM-I positive), and a gentamicin, streptomycin and sulfonamide resistant Pseudomonas aeruginosa (BEI Resources NR-31040). Assessed was the gram-positive strain of methicillin resistant Staphylococcus aureus (USA300-0114 strain), which is also resistant to erythromycin and tetracycline. Samples were cultured in Luria broth (LB Broth Lennox, powder microbial growth medium, SIGMA-ALDRICH®) by taking 25 mL of broth in a 50 mL sterile conical tube and incubating in a shaker for 16 h at 37° C. Samples were diluted 50% by adding 25 mL media to the incubated sample as we plated controls for each experiment and condition.
(§4) Samples were treated in 2 mm gap cuvettes containing 365 μL of sample between the electrodes, with bio-grade mineral oil added on top of the electrode plates to prevent arcing.
(§5) To establish a common baseline for comparing different NSEP parameters, we fixed the energy density U delivered to the cuvettes according to Formula (1) (above). For 300 ns EPs, 500 EPs at 20 kV/cm and 222 EPs at 30 kV/cm delivered the same energy to the sample.
(§6) Tissue culture Petri dishes from VWR R (15 cm diameter, 10 mm height) were utilized for plating. Each plate was covered with 15 mL of Luria broth (Agar, microbiology tested powder, SIGMA-ALDRICH®), which was prepared by adding 20 g of LB Lennox (SIGMA-ALDRICH) and 15 g/L of agar to water prior to being autoclaved. The salinity of the agar was the same as the LB (0.5% NaCl) to minimize additional environmental stressors on the bacteria.
(§7) Removed was 20 μL from each cuvette and added to 180 μL of PBS in a 96-well dish in triplicate. Each well was then diluted by a ratio of 10:1 five additional times by taking 20 μL of the diluted sample into subsequent wells using multi-channel pipettes (using fresh tips for each dilution). Plated were the six dilutions of each sample two times each by adding 4 μL from each well onto the Petri dish using a multi-channel pipette, which allowed the plating of all three replicates on the same plate to achieve n=6. These plates were then cultured overnight in an incubator at 37° C., and counted the next day.

[2] = system: carbapenem-resistant Escherichia coli (ATCC BA-2452, NDM-1 positive); assay: Inactivation of carbapenem-resistant E. coli by 300 ns electric pulses and/or antibiotics (CFU plating); format: cell-based; settings: drug alone, 2 μg/mL or 20 μg/mL, no EPs
Source text: as §1, §2, §3, §4, §5, §6, §7

[3] = system: Klebsiella pneumoniae (ATCC BAA-2146 NDM-I positive); assay: Inactivation of K. pneumoniae by 300 ns electric pulses and/or antibiotics (CFU plating); format: cell-based
Source text: as §1, §2, §3, §4, §5, §6, §7

[4] = system: methicillin resistant Staphylococcus aureus (USA300-0114 strain); assay: Inactivation of MRSA by 300 ns electric pulses and/or antibiotics (CFU plating); format: cell-based
Source text: as §1, §2
as §3, with “condition. […]” for “condition.”
Removed was 20 μL from each cuvette and added to 180 μL of PBS in a 96-well dish in triplicate. […] These plates were then cultured overnight in an incubator at 37° C., and counted the next day.

[5] = system: Stapphylococcus aureus (gram positive bacterium number 25923); assay: Inactivation of S. aureus by 300 ns electric pulses combined with antibiotic (CFU plating); format: cell-based, Staphylococcus aureus
Procedure: (§8) Equipment. Used was a capacitor based Blumlein pulse generator with a spark gap switch to produce trapezoidal EPs of 300 ns duration at the peak with rise and fall times close to 50 ns. Multiple pulses were delivered at a frequency of 1 Hz.
(§9) The samples were treated in a standard electroporation cuvette (Dot Scientific) whose resistance must match the pulse generator's impedance to prevent pulse reflection. Utilizing Luria broth, containing 0.5% NaCl, in a cuvette with gap distances of 1 mm and 2 mm yielded the best electrical match (no reflections in the measured signal). Used were 2 mm cuvettes to ensure consistency between tests, and the applied voltage was measured across the cuvette using a LeCroy PPE 20 kV high voltage probe with a 1000:1 attenuation feeding into a TeleDyne LeCroy Waverunner 6 Zi Oscilloscope capable of measuring signals up to 4 GHz. Assuming a purely parallel plate geometry with minimal fringing gives an electric field E=V/d, where V is the peak voltage of the applied pulse and d is the gap distance.
(§10) Sample Preparation. These experiments assessed Stapphylococcus aureus (gram positive bacterium number 25923) from ATCC and Esherichia coli (gram negative bacterium number 25922) inoculated in luria broth (LB Broth Lennox, powder microbial growth medium. SIGMA-ALDRICH) by taking 8 mL of broth in a 50 mL sterile conical tube and incubating in a shaker for 20 h at 37° C. The sample was then diluted with fresh Luria broth until attaining an optical density of 0.25 for 100 μL on a photospectrometer (Molecular Devices) for a wavelength of 562 nm as measured in a 96-well plate. The optical density, which varies with growth or tube volume, was determined experimentally and set between 1×10^8 and 1.5×10^8 colony forming units (CFUs)/mL for the samples to be pulsed. These samples were then plated at dilutions between 10-6 and 100 (no dilution) depending on the effectiveness of the pulse treatments.
(§11) Electric Pulse Treatment Protocol. […] Although no consensus exists on a universal scaling law for applied EP “dose,” we fixed the energy density
(§12) [formula] • where N is the number of pulses and τ is the pulse duration. Fixing U for E=40, 30, and 20 kV/cm gave N=250, 445, and 1000 pulses, respectively. Cultures were plated as described below.
Cuvettes were filled with 365 μL of sample (sufficient to just cover the electrodes) and then 250 μL of molecular biology grade mineral oil was placed on top. Keeping the samples on ice upon achieving the required dilution further reduced experimental variability by slowing biological processes, such as fission This facilitated the assessment of the inactivation efficiency of EPs, drugs, and combined treatments.
Tests used the clinically relevant, bactericidal drug tobramycin, which targets the 30S and 50S ribosome complex and has a clinical dose from 4 to 5 μg/mL and rifampicin, which inhibits bacterial […]. Added were 0.2, 2, and 20 μg/mL of each drug to the initial bacterial dilutions prior to pulsing. Samples were immediately placed on ice to minimize cell division and reduce variability. These aliquots were also used to plate individual unpulsed controls for each drug concentration.
(§13) Plating. Plating was done on standard disposable tissue culture Petri dishes from VWR (15 cm diameter, 10 mm height) and covered with 10 mL of agar in luria broth (Agar, microbiology tested powder, SIGMA-ALDRICH), which was prepared by adding 20 g of LB lennox (SIGMA-ALDRICH) and 15 g/L of agar to water and then autoclaved.
(§14) Plated were samples at dilutions of 10^−6 and 10^−3 for low and high electric field treatments, respectively, and at 10^−6 and 10^−5 for controls All samples containing 100 μL of pulsed or diluted cultures were plated on LB agar plates and counted after overnight incubation at 37° C. […]

[6] = system: Esherichia coli (gram negative bacterium number 25922); assay: Inactivation of E. coli by 300 ns electric pulses combined with antibiotic (CFU plating); format: cell-based, Escherichia coli; set-up: synergy, E. coli: dose or concentration left out as unconfirmed
Procedure: as §8
as §9, with “Utilizing Luria broth, containing 0.5% NaCl, in a cuvette with gap distances of 1 mm and 2 mm yielded the best electrical match (no reflections in the measured signal).” left out
as §10, §11, §12
Cuvettes were filled with 365 μL of sample (sufficient to just cover the electrodes) and then 250 μL of molecular biology grade mineral oil was placed on top.
Added were 0.2, 2, and 20 μg/mL of each drug to the initial bacterial dilutions prior to pulsing. Samples were immediately placed on ice to minimize cell division and reduce variability. These aliquots were also used to plate individual unpulsed controls for each drug concentration.
as §13
Plated were samples at dilutions of 10^−6 and 10^−3 for low and high electric field treatments, respectively, and at 10^−6 and 10^−5 for controls All samples containing 100 μL of pulsed or diluted cultures were plated on LB agar plates and counted after overnight incubation at 37° C.
Pulsing with drugs: bacterial samples of both gram-positive S. aureus and gram-negative E. coli strains were pulsed in a solution with 0.2, 2, and 20 μg/mL of tobramycin and compared to an un-pulsed drug-exposed control. Pulsing and plating were performed to ensure that the drug exposure time of the bacteria was approximately fifteen minutes.

bacteria = assay: Low-dose tobramycin combined with a train of NSEPs, bacterium not specified; format: cell-based; settings: 0.2 μg/mL, 1/20th of the recommended clinical dose; whole process approximately 15 min
Source text: as §8
as §10, with “These samples were then plated at dilutions between 10-6 and 100 (no dilution) depending on the effectiveness of the pulse treatments.” left out
as §14

[7] = same energy, different electric fields and number of pulses, different concentrations, vs antibiotic alone

CC[C@H]1OC(=O)[C@H](C)[C@@H](O[C@H]2C[C@@](C)(OC)[C@@H](O)[C@H](C)O2)[C@H](C)[C@@H](O[C@@H]2O[C@H](C)C[C@H](N(C)C)[C@H]2O)[C@](C)(O)C[C@@H](C)C(=O)[C@H](C)[C@@H](O)[C@]1(C)O [erythromycin]
additional inactivation of P. aeruginosa [1]: no additional inactivation | change in E. coli population [2]: induced changes

CC(=O)O[C@H]1C[C@@]2(C)[C@@H](C[C@@H](O)[C@H]3[C@@]4(C)CC[C@@H](O)[C@@H](C)[C@@H]4CC[C@@]32C)/C1=C(\CCC=C(C)C)C(=O)O [fusidic acid]
change in E. coli population [2]: induced changes

CC(=O)NC[C@H]1CN(c2ccc(N3CCOCC3)c(F)c2)C(=O)O1 [linezolid]
log reduction of K. pneumoniae / improvement over the NSEPs ([3]; 30 kV/cm NSEPs + 20 μg/mL): did not induce a statistically significant improvement | synergy (FIG. 11B legend) ([1]; 20 kV/cm EPs + 20 μg/mL): approximately 2 log | additional inactivation of P. aeruginosa [1]: no additional inactivation | change in E. coli population [2]: induced changes

C/C(=C\C(=O)OCCCCCCCCC(=O)O)C[C@@H]1OC[C@H](C[C@@H]2O[C@H]2[C@@H](C)[C@H](C)O)[C@@H](O)[C@H]1O [mupirocin]
synergy (synergistic inactivation), MRSA ([4]; 20 μg/mL + 30 kV/cm EPs): approximately 1.5 log | MRSA 300 inactivation compared to using only the NSEPs ([4]; 20 μg/mL + 30 kV/cm NSEPs): improvement | inactivation of K. pneumoniae vs NSEPs ([3]; 20 kV/cm NSEPs + 2 μg/mL): slight increase | inactivation of K. pneumoniae vs NSEPs ([3]; 20 kV/cm NSEPs + 20 μg/mL): an increase | additional inactivation compared to NSEPs alone, K. pneumoniae ([3]; 30 kV/cm NSEPs + 2 μg/mL): 1 log | additional inactivation of P. aeruginosa [1]: no additional inactivation | change in E. coli population [2]: induced changes

NC[C@H]1O[C@H](O[C@H]2[C@H](O)[C@@H](O[C@H]3O[C@H](CO)[C@@H](O)[C@H](N)[C@H]3O)[C@H](N)C[C@@H]2N)[C@H](N)C[C@@H]1O [tobramycin]
reduction in S. aureus population ([5]; 20 kV/cm EPs + 0.2 μg/mL): 10-20% | log-reduction of S. aureus ([5]; 20 kV/cm EPs + 2 μg/mL): 1.5 log | log-reduction of S. aureus ([5]; 20 kV/cm EPs + 20 μg/mL): 2.6 log | synergy (additional inactivation induced by the antimicrobial for a given pulse condition), S. aureus ([5]; 20 kV/cm pulse trains, 0.2 μg/mL): no synergy | synergy, S. aureus ([5]; 20 kV/cm pulse trains, 2.0 μg/mL): 1.5 log | synergy, S. aureus ([5]; 30 and 40 kV/cm pulse trains, 2 and 20 μg/mL doses): synergies occurred | effect of combining trains of 300 ns EPs with antibiotic on amount of viable S. aureus [5, 7]: synergistically reduced; also recorded: significantly greater inactivation | synergy, E. coli ([6]; 20 kV/cm treatment): did not | synergy, E. coli ([6]; 30 and 40 kV/cm treatments): exhibited synergy | reduction of E. coli ([6]; 40 kV/cm EPs combined with antibiotic, considered complete sterilization): over 9 log-10 | synergy, E. coli ([6]; any of the applied electric fields, any concentration (FIG. 5B)): experienced synergy | effect of combining trains of 300 ns EPs with antibiotic on amount of viable E. coli [6, 7]: synergistically reduced; also recorded: significantly greater inactivation | synergy with NSEPs (bacteria): Synergy occurred

CN[C@H](CC(C)C)C(=O)N[C@H]1C(=O)N[C@@H](CC(N)=O)C(=O)N[C@H]2C(=O)N[C@H]3C(=O)N[C@H](C(=O)N[C@H](C(=O)O)c4cc(O)cc(O)c4-c4cc3ccc4O)[C@H](O)c3ccc(c(Cl)c3)Oc3cc2cc(c3O[C@@H]2O[C@H](CO)[C@@H](O)[C@H](O)[C@H]2O[C@H]2C[C@](C)(N)[C@H](O)[C@H](C)O2)Oc2ccc(cc2Cl)[C@H]1O [vancomycin]
additional inactivation compared to NSEPs alone, K. pneumoniae ([3]; 30 kV/cm NSEPs + 2 μg/mL): 1 log | log reduction of K. pneumoniae ([3]; 30 kV/cm NSEPs + 2 μg/mL): 5 log | additional inactivation of P. aeruginosa [1]: no additional inactivation | log reduction of P. aeruginosa ([1]; 30 kV/cm NSEPs + 2 μg/mL): up to 2 log | synergy, P. aeruginosa ([1]; 30 kV/cm NSEPs + 2 μg/mL): synergy | change in E. coli population [2]: induced changes
